One series concerns the target T1, CYP17 (H295R cells) (Homo sapiens, UniProt P05093).
T1 construct: endogenous in cells; host or cells: H295R cells
T1 sequence (P05093 1-508): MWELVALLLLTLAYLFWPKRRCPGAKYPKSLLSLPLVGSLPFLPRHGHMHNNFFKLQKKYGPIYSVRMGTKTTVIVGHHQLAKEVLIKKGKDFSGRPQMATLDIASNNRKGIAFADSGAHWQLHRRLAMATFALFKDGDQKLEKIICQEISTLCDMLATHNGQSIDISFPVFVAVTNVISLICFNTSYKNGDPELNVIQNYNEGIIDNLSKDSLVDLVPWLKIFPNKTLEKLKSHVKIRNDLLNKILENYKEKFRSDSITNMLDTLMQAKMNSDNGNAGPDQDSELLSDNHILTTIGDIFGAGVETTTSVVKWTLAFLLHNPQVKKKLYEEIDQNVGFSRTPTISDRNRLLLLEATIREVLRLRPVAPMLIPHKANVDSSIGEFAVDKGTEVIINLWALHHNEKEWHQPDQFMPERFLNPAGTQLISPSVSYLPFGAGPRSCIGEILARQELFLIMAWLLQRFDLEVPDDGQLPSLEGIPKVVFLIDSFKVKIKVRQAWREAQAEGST
Description: CYP17 cellular assay (IC50), testosterone in H295R cells (Biological Example 7). In kind it is cell-based. The conditions noted are these: H295R cells. An outline of the steps:
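H295R cells cultured 24 h, then exposed to compound at 100, 10, 1, 0.1 nM final in serum-free DMEM/F-12 with ITS+ and 0.1% methanol for 24 h at 37 °C. Medium testosterone measured by ELISA and plotted against compound concentration.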

For series [1], the target named is T2, CYP17 (human testicular microsome) (Homo sapiens, UniProt P05093).
T2 construct: using microsomal fraction from human testis (Celsis Cat #S00110) as the enzyme source; tissue Celsis S00110; host or cells: human testis microsomal fraction
T2 sequence (P05093 1-508): T1 sequence (P05093 1-508)
Description: CYP17 enzymatic assay (% inhibition at 10 nM), version 1 (Biological Example 5). It is filed as biochemical. The conditions noted are these: 10 nM compound, DHEA by ELISA, read-out: Biological Example No. 5: CYP17 percent inhibition at 10 nM (version 1). (In general: ELISA stands for enzyme-linked immunosorbent assay.)
Description: The assays were performed in 96-well plates. Typical assays were carried out in total 100 μL volume that included test compounds at 10 nM concentration, 1× reaction buffer, 0.5 mM NADPH, 1 μM 17α-hydroxypregnenolone, and 2.5 μL of diluted human testicular microsome (Celsis. Cat #S00110). Reaction without test compound served as positive control. Reactions were allowed to incubate at 37° C. for 90 minutes with gentle shaking. The reaction was stopped by directly applying the enzymatic reaction mixture to ELISA plate for evaluation of DHEA concentration according to manufacturer's protocol (IBL America). A standard curve (OD450 vs. DHEA concentration) was generated using purified DHEA. […] Percent inhibition (inhibition %) of the compound was calculated using normalized DHEA concentration based on following formula: 100-([DHEA] of compound/[DHEA] of positive control *100).

Series [2] can be described thus: Rat liver microsome stability assay (Biological Example 8a). The conditions noted are these: liver microsomes, pH 7.4. A general note: Liver microsomes are a subcellular fraction often used to study metabolism.
Description: Each test compound (1.5 μM, 30 μL) was incubated with rat (BD Gentest, Cat No. 452501) or human (BD Gentest, Cat No. 452161) liver microsomes (0.75 mg/mL, 0.1 M potassium phosphate buffer, 1.0 mM EDTA, pH 7.4) in 96 well plates. The reaction was started with addition of excess NADPH (5 mg/mL, 15 μL in 0.1 M potassium phosphate buffer, 1.0 mM EDTA, pH 7.4), the total volume is 45 μL (compound final concentration was 1 μM). The incubations were terminated at time zero and at 5, 15, 30, and 60 minutes by addition of 135 μL/excess ACN containing internal standard (1S). After quenching, the reaction mixtures was centrifuged (Eppendorf Centrifuge 5810R) at 3220×g for 10 min (4° C.). 50 μL of the supernatant was transferred from each well into a 96-well sample plate containing 50 μL of ultra-pure water (Millipore) for LC-MS/MS analysis. The half-life T1/2=0.693/K (K is the rate constant from a plot of log [concentration] vs. incubation time) was calculated.
Series [3] is described as follows: Human liver microsome stability assay (Biological Example 8b). The conditions noted are these: liver microsomes, pH 7.4.
Description: The reaction was started with addition of excess NADPH (5 mg/mL, 15 μL in 0.1 M potassium phosphate buffer, 1.0 mM EDTA, pH 7.4), the total volume is 45 μL (compound final concentration was 1 μM). […] 50 μL of the supernatant was transferred from each well into a 96-well sample plate containing 50 μL of ultra-pure water (Millipore) for LC-MS/MS analysis.
The target in series [4] is T2, CYP17 (human testicular microsome). Description: CYP17 enzymatic assay (IC50) (Biological Example 4). In kind it is biochemical. The conditions noted are these: human testicular microsome.
Description: The assays were performed in 96-well plates. Typical assays were carried out in total 100 μL volume that included test compounds at designated concentrations, 1× reaction buffer, 0.5 mM NADPH, 1 μM 17α-hydroxypregnenolone, and 2.5 μL of diluted human testicular microsome (Celsis. Cat #S00110). Reaction without test compound served as positive control. Reactions were allowed to incubate at 37° C. for 90 minutes with gentle shaking. The reaction was stopped by directly applying the enzymatic reaction mixture to ELISA plate for evaluation of DHEA concentration according to manufacturer's protocol (IBL America). A standard curve (OD450 vs. DHEA concentration) was generated using purified DHEA.
Series [5] has the same target. The experiment in a line: CYP17 enzymatic assay (% inhibition at 1 nM) (Biological Example 12). In kind it is biochemical. The conditions noted are these: compound at 1 nM, read-out: CYP17 enzymatic assay % inhibition at 1 nM (Biological Example No. 12).
Setting [6] is: testosterone by ELISA, 24 hours, read-out: Biological Example No. 7: CYP17 cellular assay IC50.
Where [7] appears, read: DHEA by ELISA, read-out: Biological Example No. 4: CYP17 enzymatic assay IC50.

In patent publication US20130252930A1 (BIOMARIN PHARMACEUTICAL INC., priority 2010, published 2013) one finds IC50, inhibition and half-life data, which are given here for three compounds.

Structures are written as SMILES. Where two headings read alike, the source gives them in different places.

The IC50 is the concentration that gives 50% inhibition. The inhibition is the percentage by which the read-out fell short of the control. Broadly, the half-life is the time in which the quantity being followed falls by half. A higher half-life goes with slow loss. On to `C[C@]12CC[C@H]3[C@@H](CC=C4C[C@@H](O)CC[C@@]43C)C1=CC=C2c1cccnc1` [Compound 79, (3S,10R,13S)-10,13-dimethyl-17-(pyridin-3-yl)-2,3,4,7,8,9,10,11,12,13-decahydro-1H-cyclopenta[a]phenanthren-3-ol], for which the figures for the concentration for half-maximal inhibition (IC50) (at CYP17 (H295R cells) (setting [6]); in series [4] (setting [7])) were less than 15 nM and less than 11 nM, respectively. The inhibition at 0.01 µM in series [1] was in the range of 50 to 80%. The results for the half-life at 1 μM in series [2] and in series [3] were 10 to 60 min and 1 to 50 min, respectively.

On to `C[C@]12CC(O)C[C@@H]1CC[C@@H]1[C@@H]2CC[C@]2(C)C(n3ccnc3)=CC[C@@H]12` (stereo partly drawn) [Compound 109, (3aS,5aS)-6-(1H-imidazol-1-yl)-3a,5a-dimethyl-1,2,3,3a,3b,4,5,5a,8,8a,8b,9,10,10a-tetradecahydrodicyclopenta[a,f]naphthalen-2-ol], for which the IC50 at CYP17 (H295R cells) (setting [6]) was less than 15 nM; in series [4] (setting [7]), less than 11 nM. Besides, the inhibition at 0.01 µM in series [1] is greater than 80%. In series [2], this compound displayed a half-life at 1 μM of 10 to 60 min.

In the case of `CC(=O)NC1CC[C@@]2(C)C(=CCC3C2CC[C@]2(C)C(n4ccnc4)=CCC32)C1` (stereo partly drawn) [Compound 237, N-((10R,13S)-17-(1H-imidazol-1-yl)-10,13-dimethyl-2,3,4,7,8,9,10,11,12,13,14,15-dodecahydro-1H-cyclopenta[a]phenanthren-3-yl)acetamide], the inhibition at 0.001 µM in series [5] was greater than 50%. For the same compound, the IC50 is less than 15 nM at CYP17 (H295R cells) (testosterone, read-out: CYP17 cellular assay IC50 (Biological Example No. 7)) and less than 11 nM in series [4] (read-out: CYP17 enzymatic assay IC50 (Biological Example No. 4)). This compound also gave a half-life at 1 μM in series [3] greater than 50 min.
